Measured values published in paper PMC11389776, “Positive allosteric modulation of a GPCR ternary complex” (Science Advances, 2024).

Experiments:
[1] = target: T1, M2ΔICL3 mAChR (Homo sapiens, UniProt P08172, DEL226-389); experiment: ERK1/2 phosphorylation assay in M2ΔICL3 mAChR FlpIn CHO cells; assay type: cell-based; settings: pERK1/2, M2ΔICL3 mAChR FlpIn CHO cells, normalized to FBS; three-parameter logistic
T1 construct: expressed in transfected cells
T1 sequence (P08172 with tags, fused parts or gaps DEL226-389): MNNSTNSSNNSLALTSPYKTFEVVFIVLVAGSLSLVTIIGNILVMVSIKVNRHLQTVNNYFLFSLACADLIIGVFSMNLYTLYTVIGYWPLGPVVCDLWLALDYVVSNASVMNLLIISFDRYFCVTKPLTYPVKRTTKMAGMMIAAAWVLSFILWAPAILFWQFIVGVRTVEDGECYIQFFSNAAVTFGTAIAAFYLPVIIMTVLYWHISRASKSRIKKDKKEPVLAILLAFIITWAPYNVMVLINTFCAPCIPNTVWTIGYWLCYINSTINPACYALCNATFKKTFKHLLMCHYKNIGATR
Method: (§1) All data were analyzed using GraphPad Prism 9 (GraphPad Software, San Diego, CA). Concentration-response curves were fit with a three-parameter logistic equation to quantify potency (pEC50) and an operational model of agonism to derive an efficacy parameter (log τ) ([69]). […] For competition binding experiments between [^3H]-NMS and a range of concentrations of unlabeled orthosteric agonist at M2 mAChR nanodiscs in the presence of G protein and for competition binding at M2 mAChR membranes, data were fit to a two-site competition binding model or a one-site competition binding model. […] Monoexponential decay and one-phase association equations were fit to the radioligand dissociation and association data at M2 mAChR nanodiscs. Kinetic TRUPATH data were analyzed using a “baseline then rise to steady state with drift” equation ([44]).

[2] = target: T2, M2 mAChR (Homo sapiens, UniProt P08172, DEL226-389); experiment: [3H]-NMS interaction binding with LY211 and/or G protein at M2 mAChR nanodiscs (full interaction and titration)
T2 construct: made in house; host or cells: Sf9 insect cells (receptor, baculovirus); Trichoplusia ni Hi5 cells (G protein); E. coli BL21(DE3) (cMSP1D1 scaffold)
T2 sequence (P08172 with tags, fused parts or gaps DEL226-389): T1 sequence (P08172 with tags, fused parts or gaps DEL226-389)
Method: (§2) The affinity of [^3H]-NMS for M2 mAChR in nanodiscs, as well as the concentration of receptor in nanodiscs, was determined through saturation binding with [^3H]-NMS. M2 nanodiscs were incubated with a range of concentrations of [^3H] […] Membrane equilibrium binding experiments were performed with 15 μg of membrane expressing the WT hM2 mAChR in a 300-μl reaction volume of binding buffer with or without 100 μM Gpp[NH]pp in deep 96-well plates for 6 hours at RT. […] For all radioligand binding experiments, nonspecific binding was defined by 10 μM Atr and the assay was terminated through rapid filtration through Whatman GF/B filter plates using a 96-well harvester (PerkinElmer). Filter plates were dried overnight, and radioactivity was determined by adding 40 μl of MicroScint-O scintillation fluid and counting in a MicroBeta^2 Plate Counter (PerkinElmer Life Sciences).
(§3) All data were analyzed using GraphPad Prism 9 (GraphPad Software, San Diego, CA). […] For competition binding experiments between [^3H]-NMS and a range of concentrations of unlabeled orthosteric agonist at M2 mAChR nanodiscs in the presence of G protein and for competition binding at M2 mAChR membranes, data were fit to a two-site competition binding model or a one-site competition binding model. […] Monoexponential decay and one-phase association equations were fit to the radioligand dissociation and association data at M2 mAChR nanodiscs.

[3] = target: T2, M2 mAChR; experiment: [3H]-NMS competition binding at M2 mAChR nanodiscs with or without Gi1 protein
Method: as §2, §3

[4] = target: T3, M2 mAChR (Homo sapiens, UniProt P08172); experiment: Gi1 (TRUPATH) protein activation assay in M2 mAChR FlpIn CHO cells; assay type: cell-based; settings: for Log τ: operational efficacy, operational model of agonism, LY211 value is an estimate (saturation not reached)
T3 construct: expressed in transfected cells
T3 sequence (P08172 1-466): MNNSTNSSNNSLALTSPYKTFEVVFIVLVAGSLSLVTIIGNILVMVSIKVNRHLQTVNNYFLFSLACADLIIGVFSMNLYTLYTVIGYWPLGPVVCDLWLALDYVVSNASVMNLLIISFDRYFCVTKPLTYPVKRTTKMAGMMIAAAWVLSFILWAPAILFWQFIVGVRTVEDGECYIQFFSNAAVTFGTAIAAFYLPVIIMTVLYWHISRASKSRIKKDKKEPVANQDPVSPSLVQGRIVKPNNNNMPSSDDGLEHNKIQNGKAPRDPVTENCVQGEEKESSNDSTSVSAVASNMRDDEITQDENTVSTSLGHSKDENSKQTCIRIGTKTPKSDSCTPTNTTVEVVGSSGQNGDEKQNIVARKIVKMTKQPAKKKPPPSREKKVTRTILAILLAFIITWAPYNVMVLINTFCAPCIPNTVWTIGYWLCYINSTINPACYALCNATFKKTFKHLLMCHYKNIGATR
Method: Upon 60 to 80% confluence, WT hM2 mAChR expressing FlpIn CHO cells were transfected transiently using polyethylenimine (Sigma-Aldrich) with 10 ng per well of each the G protein TRUPATH biosensors pcDNA5/FRT/TO-Gαi1-RLuc8/pcDNA3.1-β3/pcDNA3.1-Gγ9-GFP2 giving a ratio of 1:1:1 ratio with 30 ng in total. Cells were plated at 30,000 cells per well into 96-well Greiner CELLSTAR white-walled plates (Sigma-Aldrich). Forty-eight hours later, cells were washed with 200 μl of PBS and replaced with 1x Hanks’ balanced salt solution supplemented with 10 mM Hepes. […] The ratio was vehicle corrected using the initial four baseline measurements and then baseline corrected again using the vehicle-treated wells. Concentration-response curves were constructed from the area under the curve (AUC) of the double baseline-corrected kinetic traces and normalized to the highest AUC value in each dataset.
as §3

[5] = target: T3, M2 mAChR; experiment: Kinetic Gαi1 (TRUPATH) protein activation assay in M2 mAChR CHO cells; assay type: cell-based; settings: for Steady state: final effect level, normalized to ACh
Method: Upon 60 to 80% confluence, WT hM2 mAChR expressing FlpIn CHO cells were transfected transiently using polyethylenimine (Sigma-Aldrich) with 10 ng per well of each the G protein TRUPATH biosensors pcDNA5/FRT/TO-Gαi1-RLuc8/pcDNA3.1-β3/pcDNA3.1-Gγ9-GFP2 giving a ratio of 1:1:1 ratio with 30 ng in total. Cells were plated at 30,000 cells per well into 96-well Greiner CELLSTAR white-walled plates (Sigma-Aldrich). Forty-eight hours later, cells were washed with 200 μl of PBS and replaced with 1x Hanks’ balanced salt solution supplemented with 10 mM Hepes. […] Cells were further incubated for 10 min at 25°C before BRET measurements were performed on a PHERAstar FSX plate reader (BMG Labtech) using 410/80-nm and 515/30-nm filters. […] The BRET signal was calculated as the ratio of 515/30-nm emission over 410/80-nm emission. The ratio was vehicle corrected using the initial four baseline measurements and then baseline corrected again using the vehicle-treated wells. Concentration-response curves were constructed from the area under the curve (AUC) of the double baseline-corrected kinetic traces and normalized to the highest AUC value in each dataset.
as §1

[6] = target: T2, M2 mAChR; experiment: [3H]-NMS association and dissociation assays at M2 mAChR nanodiscs; assay type: binding
Method: The affinity of [^3H]-NMS for M2 mAChR in nanodiscs, as well as the concentration of receptor in nanodiscs, was determined through saturation binding with [^3H]-NMS. M2 nanodiscs were incubated with a range of concentrations of [^3H] NMS in a final volume of 200 μl of binding buffer [20 mM Hepes (pH 7.5), 100 mM NaCl, 10 mM MgCl2, and 0.5% bovine serum albumin] for 6 hours at RT. […] Membrane equilibrium binding experiments were performed with 15 μg of membrane expressing the WT hM2 mAChR in a 300-μl reaction volume of binding buffer with or without 100 μM Gpp[NH]pp in deep 96-well plates for 6 hours at RT. […] For all radioligand binding experiments, nonspecific binding was defined by 10 μM Atr and the assay was terminated through rapid filtration through Whatman GF/B filter plates using a 96-well harvester (PerkinElmer). Filter plates were dried overnight, and radioactivity was determined by adding 40 μl of MicroScint-O scintillation fluid and counting in a MicroBeta^2 Plate Counter (PerkinElmer Life Sciences).
as §1

[7] = target: M2ΔICL3 mAChR (Flag-M2ΔICL3-His) reconstituted into cMSP1D1 nanodiscs (human) (UniProt P08172)
[8] = target: M2ΔICL3 mAChR (Flag-M2ΔICL3-His) reconstituted into cMSP1D1 nanodiscs (human) (UniProt P08172); experiment: radioligand binding; Gi1 heterotrimer titrated (R:G ratios plotted as molar concentration) against a KD concentration of [3H]-NMS at M2 mAChR nanodiscs; affinity for the NMS-bound receptor from the allosteric ternary complex model (ATCM); 20 mM Hepes pH 7.5, 100 mM NaCl, 10 mM MgCl2, 0.5% BSA; 6 hours at RT; filtration; settings: scale: negative logarithm of the equilibrium dissociation constant
[9] = saturating amount of drug alone
[10] = saturating orthosteric agonist + LY211
[11] = saturating amount of drug alone, baseline then rise to steady state with drift model
[12] = Titration against KD concentration of [3H]-NMS, ATCM

C[N+](C)(C)CC#CCOC1=NOCC1 [Ipx, iperoxo]
pEC50 [1]: 8.23 ± 0.16 | (LY211) - Log αAgonist ([2]; Full interaction, − G protein heterotrimer, cooperativity between orthosteric agonist and LY211, ATCM): 2.05 ± 0.21 (4) | increase in affinity between pKi(Low) and pKi(High) ([3]; M2 mAChR nanodiscs, shift promoted by Gi1): 112 fold | increase in agonist affinity in the presence of 10 μM LY211 ([3]; M2 mAChR nanodiscs, without G protein): 112 fold | (G protein) - Log α ([3]; Nanodisc, cooperativity between agonist and G protein (Gi1), ATCM): 2.33 ± 0.18 (3) | pKi(Low) ([3]; Nanodisc, two-site competition binding model, 6 hours at RT): 7.72 ± 0.06 (11) | FracHi - M2 mAChR nanodiscs - receptor:G protein molar ratio 1:0 ([3]; fraction of receptors in high-affinity state, two-site model, R:G 1:0): 0.12 ± 0.04 (11) | FracHi - M2 mAChR nanodiscs - receptor:G protein molar ratio 1:500 ([3]; fraction of receptors in high-affinity state, two-site model, R:G 1:500 (Gi1)): 0.68 ± 0.06 (3) | FracHi - M2 mAChR nanodiscs - receptor:G protein molar ratio 1:1000 ([3]; fraction of receptors in high-affinity state, two-site model, R:G 1:1000 (Gi1)): 0.76 ± 0.06 (3) | FracHi - M2 mAChR nanodiscs - receptor:G protein molar ratio 1:2000 ([3]; fraction of receptors in high-affinity state, two-site model, R:G 1:2000 (Gi1)): 0.91 ± 0.05 (3) | pEC50 ([4]; Gi1 activation (BRET), M2 mAChR FlpIn CHO cells, three-parameter logistic equation): 9.18 ± 0.22 (7) | Log τ [4]: 1.61 ± 0.25 (7) | Steady state [5, 9]: 102 ± 0.95 (3) | Steady state [5, 10]: 114 ± 0.68 (4) | Initial rate [5, 11]: 217 ± 6.48 (3) BRET units min^−1 | Initial rate [5, 10]: 586 ± 26.8 (4) BRET units min^−1

Cc1c(Cl)c(OCC(=O)N2CCN(C)CC2)nc2sc(C(=O)NC3CC3)c(N)c12 [LY211, LY2119620]
(LY211) - Log αAgonist ([2]; Full interaction ACh–LY211, + 1:2000 G protein heterotrimer, not different from zero (F test), constrained to zero): 0 | (LY211) - Log α[3H]-NMS ([2]; Full interaction with ACh, + 1:2000 G protein heterotrimer, ATCM): −0.37 ± 0.04 (4) | Log α[3H]-NMS [2, 12]: −0.19 ± 0.08 (3) | Log α[3H]-NMS ([2]; Titration against [3H]-NMS, + 1:2000 G protein heterotrimer, ATCM): −0.81 ± 0.20 (3) | increase in the affinity of LY211 in the presence of G protein ([2]; titration against [3H]-NMS, with vs without saturating Gi1): sixfold | Log τ [4]: 0.75 ± 0.12 (4) | Steady state [5, 9]: 69.1 ± 4.22 (3) | Initial rate [5, 11]: 198 ± 51.0 (3) BRET units min^−1

C[N+]1(C)[C@@H]2CC(OC(=O)[C@H](CO)c3ccccc3)C[C@H]1[C@@H]1O[C@@H]12 (stereo partly drawn) [[^3H]-NMS, [^3H]-N-methylscopolamine]
B max ([6]; +10 μM LY211): 115 ± 13.2 (3) | B max ([6]; +10 μM LY211 + Gi1): 20.33 ± 4.96 (3) | B max ([6]; [3H]-NMS only, maximal binding at equilibrium, one-phase association model): 131 ± 4.71 (3) | k off ([6]; [3H]-NMS only, monoexponential decay): 0.150 ± 0.011 (4) min^−1

G protein heterotrimer: purified WT G protein heterotrimer (Gαi1β1γ2)
Log α[3H]-NMS [2, 12]: −0.55 ± 0.16 (10) | pKB [2, 12]: 7.37 ± 0.22 (10) | Log α[3H]-NMS ([2]; Titration against KD concentration of [3H]-NMS, ATCM, listed as Gi1): −0.55 ± 0.16

Gq: purified heterotrimeric G protein, Gq α subunit with Gβ1γ2
effect of G protein heterotrimer on ACh affinity ([3]; 1:2000 molar ratio M2 mAChR:G protein, [3H]-NMS competition binding): could not mediate any change in ACh affinity

WT G protein heterotrimer Gαi1β1γ2 (from UniProt P63096 1-354; P62873 1-340; P59768 1-71) (complex)
FracHi: fraction of receptors in the high-affinity state for ACh, [3H]-NMS competition binding at M2 mAChR nanodiscs, receptor:G protein molar ratio 1:0 to 1:2000 (highest at 1:2000) [7]: 1 | FracHi: fraction of receptors in the high-affinity state for Ipx, [3H]-NMS competition binding at M2 mAChR nanodiscs, receptor:G protein molar ratio 1:0 and 1:500 to 1:2000 (highest at 1:2000) [7]: 0.91 | FracHi: fraction of receptors in the high-affinity state for Pilo, [3H]-NMS competition binding at M2 mAChR nanodiscs, receptor:G protein molar ratio 1:0 and 1:500 to 1:2000 (highest at 1:2000) [7]: 0.73 | pKB [8]: 7.37
